Measurements taken from ChEMBL document CHEMBL5108013, “Crescent-shaped meta-substituted benzene derivatives as a new class of non-nucleoside ribonuclease A inhibitors” (Bioorg Med Chem, 2022).
Active and inactive are the calls of the source. No cut-off for these calls is given here.

How the values were obtained:
[1] = molecular target: T1, Ribonuclease pancreatic (Bos taurus) (UniProt P61823); experiment: Inhibition of bovine pancreatic RNase A assessed as increase in RNA band intensity using RNA as substrate incubated for 3 hrs followed by RNA addition for 30 mins by ethidium bromide staining based agarose gel electrophoresis; settings: time 210.0 min
T1 sequence (whole entry): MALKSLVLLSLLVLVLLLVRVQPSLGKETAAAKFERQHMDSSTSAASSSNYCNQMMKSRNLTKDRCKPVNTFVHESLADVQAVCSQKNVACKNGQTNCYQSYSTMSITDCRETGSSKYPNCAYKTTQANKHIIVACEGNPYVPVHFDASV

Ribonuclease pancreatic [2] = molecular target: T2, Ribonuclease pancreatic (Bos taurus, UniProt P61823); experiment: Competitive inhibition of bovine pancreatic RNase A using 2',3'-cCMP as substrate by Lineweaver-Burk plot analysis
T2 sequence (P61823 whole entry): T1 sequence (whole entry)

Ribonuclease pancreatic [3] = molecular target: T2, Ribonuclease pancreatic; experiment: Inhibition of bovine pancreatic RNase A using 2',3'-cCMP as substrate by Lineweaver-Burk plot analysis
Ribonuclease pancreatic [4] = molecular target: T2, Ribonuclease pancreatic; experiment: Non-competitive inhibition of bovine pancreatic RNase A using 2',3'-cCMP as substrate by Lineweaver-Burk plot analysis
Ribonuclease pancreatic [5] = molecular target: T2, Ribonuclease pancreatic; experiment: Inhibition of bovine pancreatic RNase A assessed as reduction in CpG cleavage by spectrophotometric analysis

SMILES | inhibition [1] | Ki (Ribonuclease pancreatic [2]) | also measured
O=C(O)c1cn(-c2cccc(-n3cc(C(=O)O)nn3)c2)nn1 | Active | 60 µM | 
O=S(=O)(O)Cc1cn(-c2cccc(-n3cc(CS(=O)(=O)O)nn3)c2)nn1 | Active | 32 µM | 
O=C(O)c1cc(-n2cc(CS(=O)(=O)O)nn2)cc(-n2cc(CS(=O)(=O)O)nn2)c1 | Active | 12 µM | 
Cc1cn([C@H]2C[C@H](NC(=O)[C@@H](CC(=O)O)NC(=O)[C@H]3O[C@@H](n4ccc(=O)[nH]c4=O)[C@H](O)[C@@H]3O)[C@@H](CO)O2)c(=O)[nH]c1=O |  |  | Ki (Ribonuclease pancreatic [3]): 66.7 µM
OCc1cn(-c2cccc(-n3cc(CO)nn3)c2)nn1 | Active | 79 µM | 
O=C(O)C1CCN(C(=O)c2cccc(C(=O)N3CCC(C(=O)O)CC3)c2)CC1 | Active |  | Ki (Ribonuclease pancreatic [4]): 617 µM
O=C(Nc1ccc(Cc2ccc(NC(=O)c3cccc([N+](=O)[O-])c3)c(C(=O)O)c2)cc1C(=O)O)c1cccc([N+](=O)[O-])c1 |  |  | Ki (Ribonuclease pancreatic [5]): 21 µM
O=S(=O)(O)CCn1cc(COC[C@@H]2O[C@H](Cn3cc(CS(=O)(=O)O)nn3)[C@@H](O)[C@H]2O)nn1 |  |  | Ki (Ribonuclease pancreatic [3]): 29 µM
O=C(O)c1cc(-n2cc(CO)nn2)cc(-n2cc(CO)nn2)c1 | Active | 44 µM | 
O=C(O)c1cc(-n2cc(C(=O)O)nn2)cc(-n2cc(C(=O)O)nn2)c1 | Active | 28 µM | 
Cc1cn([C@H]2C[C@H](NC(=O)[C@@H](CC(=O)O)NC(=O)[C@H]3O[C@@H](n4cnc5c(N)ncnc54)[C@H](O)[C@@H]3O)[C@@H](CO)O2)c(=O)[nH]c1=O |  |  | Ki (Ribonuclease pancreatic [3]): 32 µM
O=C(O)c1cc(C(=O)N2CCC(C(=O)O)CC2)cc(C(=O)N2CCC(C(=O)O)CC2)c1 | Active | 272 µM | 
